Tests used:
NE = target: T1, NE (Homo sapiens, UniProt P08246); assay: Activity-based profiling of NE (SDS-PAGE, streptavidin-HRP western blot); type: binding; conditions: 50 μM ABP, 30 min, 37°C; labelling extinguished by heat inactivation of NE
T1 construct: purchased Calbiochem
T1 sequence (P08246 30-267): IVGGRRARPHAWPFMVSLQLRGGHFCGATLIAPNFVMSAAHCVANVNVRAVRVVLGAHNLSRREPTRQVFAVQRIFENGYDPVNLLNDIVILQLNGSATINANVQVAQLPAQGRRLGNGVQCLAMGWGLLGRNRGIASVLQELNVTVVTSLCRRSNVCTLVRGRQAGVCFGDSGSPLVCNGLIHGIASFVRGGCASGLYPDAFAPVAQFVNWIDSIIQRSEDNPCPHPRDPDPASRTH
Description: (§1) Samples of recombinant protease (trypsin, plasmin, thrombin, chymotrypsin, or HNE, as indicated in the relevant figure legends) were treated with each of the newly synthesized compounds at a concentration of 50 μM, for 30 min, at 37°C. A control sample (no ABP) was prepared by treating the recombinant protease with solvent vehicle (DMF) only, used to prepare the stock solution of each ABP. Samples were also pre-treated (±90°C for 30 min) before being incubated with each putative ABP. With trypsin and thrombin, further samples were prepared where Z-Arg^P-(OPh)2 or NAP559, respectively, was added 30 min prior to the addition of the ABP under examination. […]
(§2) FIGURE 7 Activity Based Profiling of serine proteases by peptide N-Alkyl glycine carbamates. […] CF Sol (sample 26w) was used at a final concentration of 2.5% (v/v), and the level of NE contained therein was measured using Succinyl-Ala-Ala-Pro-Val-NHMec (50 μM), in the absence (-- o --) and presence (-- o --) of NAP800 (50 μM). […]
(§3) Following transfer, the extra protein binding sites on the membrane were blocked by addition of 3% (w/v) BSA in TBST (20 mM Tris, 137 mM NaCl, 1% (v/v) Tween 20, pH 7.6) and agitated gently at room temperature for 30 minutes. The biotin-labelled proteases were then detected by addition of Streptavidin-HRP (Vector Laboratories) in 3% (w/v) BSA in TBST at a concentration of 1:20000, for 1 hour at room temperature. […]

NE in CF Sol samples = target: T2, NE in CF Sol samples (Homo sapiens, UniProt P08246); assay: Fluorogenic substrate assay of elastase-like activity in CF Sol; type: biochemical; conditions: 50 μM; CF Sol sample 26w at 2.5% (v/v); PBS pH 7.4, 37°C; 60 min
T2 construct: from tissue; host or cells: Cystic Fibrosis (CF) Sol samples 26w and 41w from patients
T2 sequence (P08246 30-267): T1 sequence (P08246 30-267)
Description: FIGURE 7 Activity Based Profiling of serine proteases by peptide N-Alkyl glycine carbamates. (A,B) record the results for the incubation of NE with NAP800 and chymotrypsin with NAP849. NE and Chymotrypsin were treated (±) with NAP800 and NAP849, respectively (± pre-heat inactivation at 95°C, for 10 min), for 30 min, at 37°C. (C) Determination of NE levels in CF samples using fluorogenic substrate assay. NE assays were carried out in PBS, pH 7.4, at 37°C. CF Sol (sample 26w) was used at a final concentration of 2.5% (v/v), and the level of NE contained therein was measured using Succinyl-Ala-Ala-Pro-Val-NHMec (50 μM), in the absence (-- o --) and presence (-- o --) of NAP800 (50 μM). (D) Activity based profiling of CF Sol using NAP800. CF Sol samples 26w and 41w were treated (+) with 50 μM NAP800 (+ pre-heat inactivation at 95°C, for 10 min), for 30 min, at 37°C.
Initially, as a quick screen, a fluorogenic enzyme assay was performed on CF Sol samples, using the elastase fluorogenic substrate MeO-Succinyl-Ala-Ala-Pro-Val-NHMec, the results of one such experiment (performed on sample 26w) is recorded in Figure 7C.

[1] = target: T3, elastase-like proteases (NE) in CF Sol samples (Homo sapiens, UniProt P08246); assay: Activity-based profiling of CF Sol samples (SDS-PAGE, streptavidin-HRP western blot); type: binding; conditions: 50 μM, 30 min, 37°C; band ∼29 kDa
T3 construct: from tissue; host or cells: Cystic Fibrosis (CF) Sol samples 26w and 41w from patients
T3 sequence (P08246 30-247 limits assumed): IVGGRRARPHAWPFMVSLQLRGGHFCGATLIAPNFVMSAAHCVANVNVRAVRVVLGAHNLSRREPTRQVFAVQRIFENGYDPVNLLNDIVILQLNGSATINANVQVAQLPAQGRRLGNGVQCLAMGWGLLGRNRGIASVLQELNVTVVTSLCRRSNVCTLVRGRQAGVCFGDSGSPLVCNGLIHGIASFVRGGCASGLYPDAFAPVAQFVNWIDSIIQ
Description: Samples of recombinant protease (trypsin, plasmin, thrombin, chymotrypsin, or HNE, as indicated in the relevant figure legends) were treated with each of the newly synthesized compounds at a concentration of 50 μM, for 30 min, at 37°C. A control sample (no ABP) was prepared by treating the recombinant protease with solvent vehicle (DMF) only, used to prepare the stock solution of each ABP. Samples were also pre-treated (±90°C for 30 min) before being incubated with each putative ABP. With trypsin and thrombin, further samples were prepared where Z-Arg^P-(OPh)2 or NAP559, respectively, was added 30 min prior to the addition of the ABP under examination. All treated samples were then denatured with SDS containing reducing treatment buffer (10 min at 95°C), followed by resolution by SDS-PAGE and subjected to Western blotting. Resolved proteins were then transferred onto the nitrocellulose membrane and labeled with streptavidin-HRP. The ABP–protease complex was then visualized following treatment with Luminata Forte HRP substrate.
as §2

chymotrypsin = target: T4, chymotrypsin (Bos taurus, UniProt P00766); assay: Activity-based profiling of chymotrypsin (SDS-PAGE, streptavidin-HRP western blot); type: binding, bovine; conditions: 50 μM ABP, 30 min, 37°C; blocked by heat inactivation
T4 construct: purchased Sigma-Aldrich (supplement); Calbiochem; host or cells: bovine pancreas
Description: as §1, §2, §3

Row | Structure (SMILES) | labelling of NE by ABP (western blot) (NE) | blockade of MeO-Succinyl-Ala-Ala-Pro-Val-NHMec cleavage in CF Sol (NE in CF Sol samples) | labelling of elastase-like proteases in CF Sol (western blot) [1] | labelling of chymotrypsin by ABP (western blot) (chymotrypsin)
1 | CC(C)N(CC(=O)NCC(=O)NCC(=O)NCCCOCCOCCOCCCNC(=O)CCCCC1SCC2NC(=O)NC21)C(=O)ON1C(=O)CCC1=O (stereo not drawn) [NAP800, Succinimidoyl-CO-NVal-Gly-Gly-PEG-Biotin] | labels a protein band corresponding to the expected molecular size/mass of NE | progressive and ultimately complete blockade of substrate cleavage | detection of a diffuse band in two CF Sol samples (26w and 41w) | –
2 | O=C(CCCCC1SCC2NC(=O)NC21)NCCCOCCOCCOCCCNC(=O)CNC(=O)CNC(=O)CN(Cc1ccccc1)C(=O)ON1C(=O)CCC1=O (stereo not drawn) [NAP849, Succinimidoyl-CO-NPhe-Gly-Gly-PEG-Biotin] | – | – | – | detection of a strong band corresponding to the molecular weight of chymotrypsin
